From the supplement of paper PMC10307832

Key:
Assay in all cases: relative viability (nuclei count vs DMSO), 5 days (fraction); higher = more cells survive
[1] = compound: C1=CC(=CC=C1C2=CC(=C(S2)NC(=O)N)C(=O)N)F [TPCA-1]
In short: (§1)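 Viability was defined as treated-well nuclei divided by vehicle-well nuclei, with the median taken over replicate plates. Cells from lung cancer lines sat overnight at 37 °C in 1536-well plates, received five √10-spaced library-drug doses by pinning on vehicle-anchored plates, and grew 5 days without medium change before one-step fixation, permeabilisation and Hoechst staining, 4× imaging and MetaXpress nuclear counts. Only plates with control CV under 25% and at least one doubling were kept.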

[2] = compound: C[C@]12O[C@H](C[C@]1(O)CO)n1c3ccccc3c3c4c(c5c6ccccc6n2c5c31)CNC4=O [Lestaurtinib]
In short: as §1

[3] = compound: C1/C(=C\C2=CC=CS2)/C(=O)/C(=C/C3=CC=CS3)/C1
In short: as §1

Cell Line NCI-H2085 has a relative viability ([1]; 0.04 µM) of 0.989, a relative viability ([1]; 0.1265 µM) of 0.989 and a relative viability ([1]; 0.4 µM) of 0.988. For the same cell line, the relative viability ([1]; 1.265 µM) was 0.897, the relative viability ([1]; 4 µM) was 0.875 and the relative viability ([2]; 0.005 µM) was 0.989. The relative viability ([2]; 0.01581 µM) was 0.99, the relative viability ([2]; 0.05 µM) was 0.996 and the relative viability ([2]; 0.1581 µM) was 1.01. For the same cell line, the relative viability ([2]; 0.5 µM) was 0.786, the relative viability ([3]; 0.2 µM) was 1.08 and the relative viability ([3]; 0.6325 µM) was 1.01. It also gave a relative viability ([3]; 2 µM) of 1.01, a relative viability ([3]; 6.325 µM) of 0.898 and a relative viability ([3]; 20 µM) of 0.961.
For NCI-H522, the relative viability ([1]; 0.04 µM) was 0.928, the relative viability ([1]; 0.1265 µM) was 0.916 and the relative viability ([1]; 0.4 µM) was 1.18. It also gave a relative viability ([1]; 1.265 µM) of 1.07, a relative viability ([1]; 4 µM) of 0.844 and a relative viability ([2]; 0.005 µM) of 1.03. The relative viability ([2]; 0.01581 µM) was 0.963, the relative viability ([2]; 0.05 µM) was 0.877 and the relative viability ([2]; 0.1581 µM) was 0.877. For the same cell line, the relative viability ([2]; 0.5 µM) was 0.604, the relative viability ([3]; 0.2 µM) was 1.12 and the relative viability ([3]; 0.6325 µM) was 0.967. For the same cell line, the relative viability ([3]; 2 µM) was 1.06, the relative viability ([3]; 6.325 µM) was 0.978 and the relative viability ([3]; 20 µM) was 0.922.
Work on PC-14 yielded a relative viability ([1]; 0.04 µM) of 1.03, a relative viability ([1]; 0.1265 µM) of 0.946 and a relative viability ([1]; 0.4 µM) of 1.06. For the same cell line, the relative viability ([1]; 1.265 µM) was 1.04, the relative viability ([1]; 4 µM) was 0.838 and the relative viability ([2]; 0.005 µM) was 1.06. It also gave a relative viability ([2]; 0.01581 µM) of 1.11, a relative viability ([2]; 0.05 µM) of 0.848 and a relative viability ([2]; 0.1581 µM) of 0.741. For the same cell line, the relative viability ([2]; 0.5 µM) was 0.344, the relative viability ([3]; 0.2 µM) was 1.03 and the relative viability ([3]; 0.6325 µM) was 1.06. The relative viability ([3]; 2 µM) was 1, the relative viability ([3]; 6.325 µM) was 0.899 and the relative viability ([3]; 20 µM) was 0.995.
HOP-62 gave a relative viability ([1]; 0.04 µM) of 1.02, a relative viability ([1]; 0.1265 µM) of 0.97 and a relative viability ([1]; 0.4 µM) of 0.956. The relative viability ([1]; 1.265 µM) was 0.943, the relative viability ([1]; 4 µM) was 0.852 and the relative viability ([2]; 0.005 µM) was 1.02. It also gave a relative viability ([2]; 0.01581 µM) of 1.11, a relative viability ([2]; 0.05 µM) of 0.921 and a relative viability ([2]; 0.1581 µM) of 1.12. It also gave a relative viability ([2]; 0.5 µM) of 0.452, a relative viability ([3]; 0.2 µM) of 1.1 and a relative viability ([3]; 0.6325 µM) of 1.02. For the same cell line, the relative viability ([3]; 2 µM) was 1.01, the relative viability ([3]; 6.325 µM) was 0.928 and the relative viability ([3]; 20 µM) was 1.01.
NCI-H2087 gave a relative viability ([1]; 0.04 µM) of 1.18, a relative viability ([1]; 0.1265 µM) of 0.966 and a relative viability ([1]; 0.4 µM) of 0.982. It also gave a relative viability ([1]; 1.265 µM) of 0.915, a relative viability ([1]; 4 µM) of 0.542 and a relative viability ([2]; 0.005 µM) of 1.03. The relative viability ([2]; 0.01581 µM) was 0.951, the relative viability ([2]; 0.05 µM) was 0.816 and the relative viability ([2]; 0.1581 µM) was 0.834. For the same cell line, the relative viability ([2]; 0.5 µM) was 0.367, the relative viability ([3]; 0.2 µM) was 1.13 and the relative viability ([3]; 0.6325 µM) was 0.872. For the same cell line, the relative viability ([3]; 2 µM) was 1.2, the relative viability ([3]; 6.325 µM) was 0.783 and the relative viability ([3]; 20 µM) was 1.01.
For NCI-H1793, the relative viability ([1]; 0.04 µM) was 1.1, the relative viability ([1]; 0.1265 µM) was 0.718 and the relative viability ([1]; 0.4 µM) was 1.08. It also gave a relative viability ([1]; 1.265 µM) of 0.954, a relative viability ([1]; 4 µM) of 0.279 and a relative viability ([2]; 0.005 µM) of 0.949. For the same cell line, the relative viability ([2]; 0.01581 µM) was 0.986, the relative viability ([2]; 0.05 µM) was 0.657 and the relative viability ([2]; 0.1581 µM) was 0.828. For the same cell line, the relative viability ([2]; 0.5 µM) was 0.723, the relative viability ([3]; 0.2 µM) was 0.962 and the relative viability ([3]; 0.6325 µM) was 0.953. It also gave a relative viability ([3]; 2 µM) of 1.1, a relative viability ([3]; 6.325 µM) of 0.856 and a relative viability ([3]; 20 µM) of 0.87.
With PC-3 [JPC-3] the relative viability ([1]; 0.04 µM) was 1.04, the relative viability ([1]; 0.1265 µM) was 1 and the relative viability ([1]; 0.4 µM) was 1.04. The relative viability ([1]; 1.265 µM) was 1.04, the relative viability ([1]; 4 µM) was 0.951 and the relative viability ([2]; 0.005 µM) was 1.07. The relative viability ([2]; 0.01581 µM) was 1.08, the relative viability ([2]; 0.05 µM) was 0.957 and the relative viability ([2]; 0.1581 µM) was 0.77. It also gave a relative viability ([2]; 0.5 µM) of 0.624, a relative viability ([3]; 0.2 µM) of 1.04 and a relative viability ([3]; 0.6325 µM) of 1.06. The relative viability ([3]; 2 µM) was 1.03, the relative viability ([3]; 6.325 µM) was 0.949 and the relative viability ([3]; 20 µM) was 1.08.
In the case of H3255, the relative viability ([1]; 0.04 µM) is reported as 1.08, the relative viability ([1]; 0.1265 µM) is reported as 0.898 and the relative viability ([1]; 0.4 µM) is reported as 0.916. It also gave a relative viability ([1]; 1.265 µM) of 0.816, a relative viability ([1]; 4 µM) of 0.783 and a relative viability ([2]; 0.005 µM) of 1.03. For the same cell line, the relative viability ([2]; 0.01581 µM) was 1.08, the relative viability ([2]; 0.05 µM) was 0.935 and the relative viability ([2]; 0.1581 µM) was 0.744. It also gave a relative viability ([2]; 0.5 µM) of 0.511, a relative viability ([3]; 0.2 µM) of 1.03 and a relative viability ([3]; 0.6325 µM) of 1.04. The relative viability ([3]; 2 µM) was 0.977, the relative viability ([3]; 6.325 µM) was 0.899 and the relative viability ([3]; 20 µM) was 0.972.
EMC-BAC-2 showed a relative viability ([1]; 0.04 µM) of 1.01, a relative viability ([1]; 0.1265 µM) of 0.979 and a relative viability ([1]; 0.4 µM) of 1.05. The relative viability ([1]; 1.265 µM) was 0.819, the relative viability ([1]; 4 µM) was 0.392 and the relative viability ([2]; 0.005 µM) was 0.925. For the same cell line, the relative viability ([2]; 0.01581 µM) was 1.04, the relative viability ([2]; 0.05 µM) was 0.73 and the relative viability ([2]; 0.1581 µM) was 0.417. It also gave a relative viability ([2]; 0.5 µM) of 0.357, a relative viability ([3]; 0.2 µM) of 0.904 and a relative viability ([3]; 0.6325 µM) of 1.06. It also gave a relative viability ([3]; 2 µM) of 0.978, a relative viability ([3]; 6.325 µM) of 0.916 and a relative viability ([3]; 20 µM) of 1.07.
Cell Line SW 900 has a relative viability ([1]; 0.04 µM) of 0.663, a relative viability ([1]; 0.1265 µM) of 0.719 and a relative viability ([1]; 0.4 µM) of 0.922. For the same cell line, the relative viability ([1]; 1.265 µM) was 0.775, the relative viability ([1]; 4 µM) was 0.654 and the relative viability ([2]; 0.005 µM) was 0.916. The relative viability ([2]; 0.01581 µM) was 1.08, the relative viability ([2]; 0.05 µM) was 0.966 and the relative viability ([2]; 0.1581 µM) was 1.06. It also gave a relative viability ([2]; 0.5 µM) of 0.885, a relative viability ([3]; 0.2 µM) of 0.9 and a relative viability ([3]; 0.6325 µM) of 0.947. For the same cell line, the relative viability ([3]; 2 µM) was 0.87, the relative viability ([3]; 6.325 µM) was 0.874 and the relative viability ([3]; 20 µM) was 0.864.
In the case of CAL-12T, the relative viability ([1]; 0.04 µM) is reported as 0.989, the relative viability ([1]; 0.1265 µM) is reported as 0.925 and the relative viability ([1]; 0.4 µM) is reported as 1.05. It also gave a relative viability ([1]; 1.265 µM) of 0.86, a relative viability ([1]; 4 µM) of 0.468 and a relative viability ([2]; 0.005 µM) of 0.962. It also gave a relative viability ([2]; 0.01581 µM) of 1.17, a relative viability ([2]; 0.05 µM) of 0.968 and a relative viability ([2]; 0.1581 µM) of 0.788. It also gave a relative viability ([2]; 0.5 µM) of 0.61, a relative viability ([3]; 0.2 µM) of 1.04 and a relative viability ([3]; 0.6325 µM) of 1.07. For the same cell line, the relative viability ([3]; 2 µM) was 0.978, the relative viability ([3]; 6.325 µM) was 0.859 and the relative viability ([3]; 20 µM) was 0.994.
NCI-H650 showed a relative viability ([1]; 0.04 µM) of 1.03, a relative viability ([1]; 0.1265 µM) of 0.823 and a relative viability ([1]; 0.4 µM) of 0.946. The relative viability ([1]; 1.265 µM) was 0.488, the relative viability ([1]; 4 µM) was 0.557 and the relative viability ([2]; 0.005 µM) was 0.953. For the same cell line, the relative viability ([2]; 0.01581 µM) was 1.03, the relative viability ([2]; 0.05 µM) was 0.844 and the relative viability ([2]; 0.1581 µM) was 0.46. It also gave a relative viability ([2]; 0.5 µM) of 0.403, a relative viability ([3]; 0.2 µM) of 0.973 and a relative viability ([3]; 0.6325 µM) of 0.885. For the same cell line, the relative viability ([3]; 2 µM) was 0.956, the relative viability ([3]; 6.325 µM) was 0.984 and the relative viability ([3]; 20 µM) was 0.906.
For SK-MES-1, the relative viability ([1]; 0.04 µM) was 1.06, the relative viability ([1]; 0.1265 µM) was 0.864 and the relative viability ([1]; 0.4 µM) was 0.976. It also gave a relative viability ([1]; 1.265 µM) of 0.881, a relative viability ([1]; 4 µM) of 0.604 and a relative viability ([2]; 0.005 µM) of 1.02. For the same cell line, the relative viability ([2]; 0.01581 µM) was 0.931, the relative viability ([2]; 0.05 µM) was 0.57 and the relative viability ([2]; 0.1581 µM) was 0.394. For the same cell line, the relative viability ([2]; 0.5 µM) was 0.259, the relative viability ([3]; 0.2 µM) was 1.05 and the relative viability ([3]; 0.6325 µM) was 1.03. The relative viability ([3]; 2 µM) was 1.02, the relative viability ([3]; 6.325 µM) was 0.906 and the relative viability ([3]; 20 µM) was 0.972.
